Measured values taken from patent US6875788B2, “Imidazoline compounds” (Les Laboratoires Servier, priority 2002, dated 2005).

What was measured:
[1] = test system: obese ob/ob mouse; experiment: Hypolipaemic activity in the obese ob/ob mouse; format: in vivo; conditions: oral route 30 mg/kg/day for 4 days, treated vs. untreated animals
Description: The products of the invention were tested in vivo in the obese ob/ob mouse, used as a model of obesity-associated insulin resistance. […] In this model, the compounds of the invention are thus shown also to be powerful hypolipaemics.

[2] = test system: Zucker rats; experiment: Oral glucose tolerance test (OGTT), hypoglycaemic activity in Zucker fatty fa/fa rats; format: in vivo, rat; conditions: 10 mg/kg per os 1 hour before OGTT (glucose 2 g/kg per os)
Description: Finally, the hypoglycaemic activity was evaluated in “Zucker” rats. “Zucker fatty” fa/fa rats arose following a spontaneous mutation of the 13M strain (Zucker & Zucker, 1961), and are genetically insulin-resistant and obese.
Their obesity can be observed from the age of four weeks, and is thus accompanied by insulin resistance, hyperinsulinaemia and hyperlipidaemia. […] Homeostasis was evaluated likewise by a glucose tolerance test.
(§1) Oral Glucose Tolerance Test (OGTT)
(§2) Glucose is administered per os (2 g/kg) to conscious rats. Blood samples are collected before and 10, 20, 30, 40, 60, 90 and 120 minutes after the glucose administration.
(§3) The product to be tested is administered per os 1 hour before the OGTT, and the control animals receive solvent (gum arabic).

[3] = test system: non-diabetic Wistar rats; experiment: Oral glucose tolerance test (OGTT), hypoglycaemic activity in non-diabetic Wistar rats; format: in vivo, rat; conditions: 10 mg/kg per os 1 hour before OGTT (glucose 2 g/kg per os)
[4] = test system: STZ Wistar rats; experiment: Oral glucose tolerance test (OGTT), hypoglycaemic activity in STZ (streptozotocin) Wistar rats; format: in vivo, rat; conditions: 10 mg/kg per os 1 hour before OGTT (glucose 2 g/kg per os)
Description: The hypoglycaemic activity of the compounds of the invention was examined in three-month-old male Wistar rats weighing about 250 g. An experimental diabetes is obtained by the iv injection, under ketamine hydrochloride anaesthesia, of a low dose of streptozotocin (35 mg/kg iv) dissolved in a citrate buffer. Such rats are called STZ rats and are characterised by a slight basal hyperglycaemia, a marked intolerance to glucose and a clear change in the secretion of insulin.
Homeostasis was evaluated by a glucose tolerance test, carried out two weeks after injection with streptozotocin.
as §1, §2, §3

[5] = biological target: T1, serotonin reuptake sites (Rattus norvegicus, UniProt P31652); experiment: Affinity for serotonin reuptake sites, competition with [3H]-paroxetine on rat frontal cortex membranes; format: binding; conditions: 0.25 nM [3H]-paroxetine, 2 hours, 25° C.
T1 construct: The membranes from the rat frontal cortex are prepared and incubated in triplicate; from tissue; host or cells: rat frontal cortex membranes
T1 sequence (P31652 whole entry): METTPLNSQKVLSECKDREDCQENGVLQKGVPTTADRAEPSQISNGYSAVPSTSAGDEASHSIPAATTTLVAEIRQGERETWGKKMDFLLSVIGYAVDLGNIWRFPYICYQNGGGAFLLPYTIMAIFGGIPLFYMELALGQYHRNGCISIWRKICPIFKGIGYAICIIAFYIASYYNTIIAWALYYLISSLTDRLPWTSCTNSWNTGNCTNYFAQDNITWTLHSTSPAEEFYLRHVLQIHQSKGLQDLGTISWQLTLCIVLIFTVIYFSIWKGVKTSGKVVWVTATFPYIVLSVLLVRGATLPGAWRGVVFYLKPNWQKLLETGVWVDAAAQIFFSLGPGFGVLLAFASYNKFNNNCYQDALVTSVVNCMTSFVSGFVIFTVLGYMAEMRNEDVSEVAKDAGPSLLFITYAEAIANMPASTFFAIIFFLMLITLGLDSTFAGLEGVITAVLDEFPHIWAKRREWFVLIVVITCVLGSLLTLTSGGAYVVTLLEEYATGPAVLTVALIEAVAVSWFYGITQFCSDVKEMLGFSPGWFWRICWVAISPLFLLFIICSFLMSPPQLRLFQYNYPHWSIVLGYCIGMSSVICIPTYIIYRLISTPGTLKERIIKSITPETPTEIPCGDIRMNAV
Description: The affinity of the compounds of the invention was determined by competition experiments with [^3H]-paroxetine. The membranes from the rat frontal cortex are prepared and incubated in triplicate for 2 hours, at 25° C., with 0.25 nM [^3H]-paroxetine and the cold ligand in a final volume of 0.4 ml. The incubation buffer contains 50 mM TRIS-HCl (pH 7.4), 120 mM NaCl and 5 mM KCl. The non-specific binding is determined using 10 μM citalopram. At the end of incubation, the medium is filtered through filters and washed three times with 5 ml of cooled buffer. The radioactivity retained on the filters is determined by liquid scintillation counting. The binding isotherms are analysed by non-linear regression in order to determine the IC50 values.

SMILES	lowers the triglycerides [1] [%]	reduces glycaemia [2] [%]	reduces glycaemia [3] [%]	reduces glycaemia [4] [%]	IC50 [5] [nM]
CC1CNC(C(c2ccsc2)C2CCCCC2)=N1 (stereo not drawn) [Example 6, 2-[Cyclohexyl(3-thienyl)methyl]-4-methyl-4,5dihydro-1H-imidazole]	32	14	13	18	–
c1cc(C(C2=NCCN2)C2CCCCC2)cs1 (stereo not drawn) [Example 3, 2-[Cyclohexyl(3-thienyl)methyl]-4,5-dihydro-1H-imidazole]	–	–	–	–	2000
c1ccc(C(C2=NCCN2)C2CCCCC2)cc1 (stereo not drawn) [2-[cyclohexyl(phenyl)methyl]-4,5-dihydro-1H-imidazole, reference compound]	–	–	–	–	150
